From US9718774B2, “Indole carboxamide derivatives as P2X7 receptor antagonist” (ACTELION PHARMACEUTICALS LTD, priority 2012, dated 2017) come the findings set out here.

The IC50 is the concentration that gives 50% inhibition.

The target of this experiment is T1, human recombinant P2X7 receptor (Homo sapiens, UniProt Q99572).
T1 construct: expressed in transfected cells
T1 sequence (Q99572 1-595): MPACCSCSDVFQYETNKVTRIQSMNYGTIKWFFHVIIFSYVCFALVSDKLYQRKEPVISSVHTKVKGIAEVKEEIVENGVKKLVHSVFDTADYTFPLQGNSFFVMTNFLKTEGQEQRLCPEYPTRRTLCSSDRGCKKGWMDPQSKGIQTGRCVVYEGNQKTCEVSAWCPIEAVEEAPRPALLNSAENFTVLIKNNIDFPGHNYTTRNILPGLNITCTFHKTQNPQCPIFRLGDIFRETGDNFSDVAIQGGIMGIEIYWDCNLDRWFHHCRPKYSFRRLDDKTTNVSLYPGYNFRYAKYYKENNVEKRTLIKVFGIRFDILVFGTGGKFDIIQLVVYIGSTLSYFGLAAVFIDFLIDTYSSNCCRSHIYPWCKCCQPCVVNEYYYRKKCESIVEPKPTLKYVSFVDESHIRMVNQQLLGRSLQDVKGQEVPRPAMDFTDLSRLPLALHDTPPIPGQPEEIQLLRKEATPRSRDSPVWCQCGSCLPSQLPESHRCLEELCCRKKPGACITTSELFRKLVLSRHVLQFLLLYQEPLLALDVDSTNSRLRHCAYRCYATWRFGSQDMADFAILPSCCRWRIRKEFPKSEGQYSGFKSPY
Put plainly: YO-PRO assay: P2X7 receptor antagonistic activity in HEK cells stably expressing P2X7. The conditions noted are these: antagonistic activity with respect to the P2X7 receptor, read-out: IC50. Format: cell-based. How it is done:
The P2X7 receptor antagonistic activity of the compounds of formula (I) is determined in accordance with the following experimental method.
Cell Line Generation and YO-PRO Assay
Cell line generation was performed in general according to established molecular cloning protocols. Specifically, RNA was extracted from human whole blood using the Qiagen RNeasy kit (Qiagen, CH) according to the manufacturer's instructions. Subsequently cDNA was made (Superscript II, Invitrogen AG, CH) and the human P2X7 gene (genbank ref. BC011913) was amplified with the following primers: […] and […]. The amplified sequence was subsequently ligated into a pcDNA3.1 (+) NotI, NheI digested plasmid. Human embryonic kidney (HEK) cells (ATCC CRL—1573, Manassas, Va., USA) were transfected with the pcDNA3.1 (+).hP2X7 plasmid using lipofectamine 2000 (Invitrogen AG, CH) according to the manufacturer's instructions. Following a 24 h exposure to DNA, cells were trypsinized and re-seeded at low density in the presence of 250 μg Geneticin. Geneticin resistant cells were then selected during two consecutive rounds of cloning by serial limiting dilution with visual inspection. Individual clones were screened for P2X7 expression by applying ATP and recording the resultant uptake of YO-PRO1. Specific cell clones were chosen based on RNA and protein expression. HEK cells stably expressing P2X7 were used to screen drugs using the YO-PRO1 assay. Cells were grown to confluency in adherent culture at 37° C. in a humidified 5% CO2 incubator (split 1/5 every 3-4 days with DMEM, 10% FCS, 1% Penicillin/Streptomycin, 250 μg/ml Geneticin). Adherent cells were detached by incubation with Trypsine (1 ml per 165 cm^2 dish) for 2 minutes, then washed off with 10 ml PBS (without Mg^2+ and Ca^2+), and resuspended in DMEM, 10% FCS, 1% Penicillin/Streptomycin, no Geneticin. 10′000 cells per well (48 hours before the assay) or 25′000 cells per well (Vi-cell XR (Beckman Coulter) (24 hours before the assay) in 50 μl full medium were seeded on 384-well black-wall, clear bottom plates, that were coated before with 10 μl per well Poly-L-Lysine, incubated for 30-60 minutes at 37° C. and washed once with PBS. Medium was removed from cells and 50 μl of assay buffer containing 0.5 μM YO-PRO-1 was added into the wells. Solutions of antagonist compounds were prepared by serial dilutions of a 10 mM DMSO solution of the antagonist into PBS using a BioMek (Beckman Coulter). Each concentration was performed in duplicate. For IC50 measurements 10 concentration points were measured (10 μM being the highest concentration followed by 9 serial dilution steps 1/3). The cells were incubated with the antagonists of the present invention together with ATP at a final concentration of 250 μM for 90 minutes. During this time period, four time points were taken. Each time point comprised the average of several measurements made within a few seconds. Fluorescence was measured in the FLIPR tetra (Molecular Devices) using the filters appropriate for YO-PRO-1 fluorescence (excitation 485/20, emission 530/25). The FLIPR tetra was equipped with Molecular Devices Screen Works system control software to define and run experimental protocols. […] For IC50 measurements the maximum intensity is plotted against the concentration of compound to determine IC50 values.
As to `O=C(NCC(c1cnc(C(F)(F)F)nc1)N1CCC(F)(F)CC1)c1ccc2[nH]ccc2c1Cl` (racemic) [Example 8, rac-4-Chloro-1H-indole-5-carboxylic acid [2-(4,4-difluoro-piperidin-1-yl)-2-(2-trifluoromethyl-pyrimidin-5-yl)-ethyl]-amide], the IC50 was determined as 12 nM.
Turning to `O=C(NCC(c1ccnc(O)c1)N1CCOCC1)c1ccc2[nH]ccc2c1Cl` (racemic) [Example 91, rac-4-Chloro-1H-indole-5-carboxylic acid [2-morpholin-4-yl-2-(2-hydroxypyridin-4-yl)-ethyl]-amide], the 50% inhibitory concentration (IC50) was 353 nM.
As to `Cc1ccc(C(CNC(=O)c2ccc3[nH]ccc3c2Cl)N2CCCCC2)cc1` (racemic) [Example 55, rac-4-Chloro-1H-indole-5-carboxylic acid (2-piperidin-1-yl-2-p-tolyl-ethyl)-amide], the IC50 stood at 774 nM.
The value for `O=C(NCC(c1ccc(F)c(F)c1)N1CCCCC1)c1ccc2[nH]ccc2c1Cl` (racemic) [Example 45, rac-4-Chloro-1H-indole-5-carboxylic acid [2-(3,4-difluoro-phenyl)-2-piperidin-1-yl-ethyl]-amide] was 83 nM; that for `CCN(CC)C(CNC(=O)c1ccc2[nH]ccc2c1Cl)c1cnc(C)nc1` (racemic) [Example 15, rac-4-Chloro-1H-indole-5-carboxylic acid [2-diethylamino-2-(2-methyl-pyrimidin-5-yl)-ethyl]-amide] was 85 nM.
The value for `O=C(NCC(c1cncnc1)N1CCOCC1)c1ccc2[nH]ccc2c1Cl` (racemic) [Example 26, rac-4-Chloro-1H-indole-5-carboxylic acid (2-morpholin-4-yl-2-pyrimidin-5-yl-ethyl)-amide] was 10 nM; that for `Cc1ncc(C(CNC(=O)c2ccc3[nH]ccc3c2Cl)NCC(C)C)cn1` (racemic) [Example 85, rac-4-Chloro-1H-indole-5-carboxylic acid [2-isobutylamino-2-(2-methyl-pyrimidin-5-yl)-ethyl]-amide] was 303 nM; that for `Cc1ncc(C(CNC(=O)c2ccc3[nH]ccc3c2Cl)N2CCCC2)cn1` (racemic) [Example 14, rac-4-Chloro-1H-indole-5-carboxylic acid [2-(2-methyl-pyrimidin-5-yl)-2-pyrrolidin-1-yl-ethyl]-amide] was 286 nM.
Take `Cc1ncc(C(CNC(=O)c2ccc3[nH]ccc3c2Cl)N2CCCOCC2)cn1` (racemic) [Example 81, rac-4-Chloro-1H-indole-5-carboxylic acid [2-(2-methyl-pyrimidin-5-yl)-2-[1,4]oxazepan-4-yl-ethyl]-amide]: the IC50 came out at 26 nM.
Turning to `Cc1ccc(C(CNC(=O)c2ccc3[nH]ccc3c2Cl)N2CCOCC2)cn1` (racemic) [Example 7, rac-4-Chloro-1H-indole-5-carboxylic acid [2-(6-methyl-pyridin-3-yl)-2-morpholin-4-yl-ethyl]-amide], the IC50 came to 19 nM.
Under `Cc1ncc(C(CNC(=O)c2cc(OCCOC(C)(C)C)c3[nH]ccc3c2Cl)N2CCOCC2)cn1` (racemic) [Example 112, rac-7-(2-tert-Butoxy-ethoxy)-4-chloro-1H-indole-5-carboxylic acid [2-(2-methyl-pyrimidin-5-yl)-2-morpholin-4-yl-ethyl]-amide] stands 32 nM.
The value for `Cc1ncc(C(CNC(=O)c2ccc3[nH]ccc3c2Cl)N2CCOCC2)cn1` (single isomer, unassigned) [Example 3, 4-Chloro-1H-indole-5-carboxylic acid [2-(2-methyl-pyrimidin-5-yl)-2-morpholin-4-yl-ethyl]-amide] was 7.9 nM; that for `Cc1ncc(C(CNC(=O)c2ccc3[nH]c(C)cc3c2Cl)N2CCOCC2)cn1` (racemic) [Example 72, rac-4-Chloro-2-methyl-1H-indole-5-carboxylic acid [2-(2-methyl-pyrimidin-5-yl)-2-morpholin-4-yl-ethyl]-amide] was 463 nM.
Consider `Cc1ncc(C(CNC(=O)c2cc(C(C)(C)O)c3[nH]ccc3c2Cl)N2CCOCC2)cn1` (racemic) [Example 116, rac-4-Chloro-7-(1-hydroxy-1-methyl-ethyl)-1H-indole-5-carboxylic acid [2-(2-methyl-pyrimidin-5-yl)-2-morpholin-4-yl-ethyl]-amide], for which the IC50 was 149 nM.
The value for `O=C(NCC(c1cnc(C(F)(F)F)nc1)N1CCOCC1)c1ccc2[nH]ccc2c1Cl` (racemic) [Example 1, rac-4-Chloro-1H-indole-5-carboxylic acid [2-morpholin-4-yl-2-(2-trifluoromethyl-pyrimidin-5-yl)-ethyl]-amide] was 3.9 nM; that for `Cc1ncc(C(CNC(=O)c2cc(C)c3[nH]ccc3c2Cl)N2CCOCC2)cn1` (single isomer, unassigned) [Example 96, 4-Chloro-7-methyl-1H-indole-5-carboxylic acid [2-(2-methyl-pyrimidin-5-yl)-2-morpholin-4-yl-ethyl]-amide] was 9.6 nM; that for `CC(C)(C)OC(=O)N1CCC(C(CNC(=O)c2ccc3[nH]ccc3c2Cl)c2cccnc2)CC1` (racemic) [Example 19, rac-4-{2-[(4-Chloro-1H-indole-5-carbonyl)-amino]-1-pyridin-3-yl-ethyl}-piperidine-1-carboxylic acid tent-butyl ester] was 35 nM.
Under `Cc1noc(C)c1C(CNC(=O)c1ccc2[nH]ccc2c1Cl)N1CCOCC1` (racemic) [Example 53, rac-4-Chloro-1H-indole-5-carboxylic acid [2-(3,5-dimethyl-isoxazol-4-yl)-2-morpholin-4-yl-ethyl]-amide] stands 1990 nM; under `Cc1ncc(C(CNC(=O)c2ccc3[nH]ccc3c2Cl)N(C)C)cn1` (racemic) [Example 12, rac-4-Chloro-1H-indole-5-carboxylic acid [2-dimethylamino-2-(2-methyl-pyrimidin-5-yl)-ethyl]-amide], 2300 nM.
The value for `Cc1ncc(C(CNC(=O)c2ccc3[nH]ccc3c2Cl)N2CCC2)cn1` (racemic) [Example 13, rac-4-Chloro-1H-indole-5-carboxylic acid [2-azetidin-1-yl-2-(2-methyl-pyrimidin-5-yl)-ethyl]-amide] was 831 nM.
Take `O=C(NCC(c1ccnc(O)c1)N1CCCCC1)c1ccc2[nH]ccc2c1Cl` (racemic) [Example 74, rac-4-Chloro-1H-indole-5-carboxylic acid [2-(2-hydroxypyridin-4-yl)-2-piperidin-1-yl-ethyl]-amide]: the IC50 is 193 nM.
Under `COc1ccc(C(CNC(=O)c2ccc3[nH]ccc3c2Cl)N2CCOCC2)cc1` (racemic) [Example 59, rac-4-Chloro-1H-indole-5-carboxylic acid [2-(4-methoxy-phenyl)-2-morpholin-4-yl-ethyl]-amide] stands 55 nM.
For `Cc1ncc(C(CNC(=O)c2ccc3[nH]ccc3c2Cl)N2CCCCC2)cn1` (racemic) [Example 16, rac-4-Chloro-1H-indole-5-carboxylic acid [2-(2-methyl-pyrimidin-5-yl)-2-piperidin-1-yl-ethyl]-amide], the IC50 worked out at 9.7 nM.
